Test results taken from PubChem BioAssay (NCI).
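Interpolation was linear, between the two tested concentrations surrounding the appropriate level; five concentrations were tested over 48 hours in 96-well plates. GI50 is the concentration that inhibits growth by half. TGI is the concentration that stops growth completely.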

Assays:
Assay in all cases: growth of human tumour cells (NCI), 48 h
786-0 renal = system: 786-0 renal
A549 NSCLC = system: A549 NSCLC
CCRF-CEM leukemia = system: CCRF-CEM leukemia
HCT-15 colon = system: HCT-15 colon
HOP-62 NSCLC = system: HOP-62 NSCLC
M14 melanoma = system: M14 melanoma
MCF7 breast = system: MCF7 breast
NCI-H460 lung = system: NCI-H460 lung
SK-MEL-28 melanoma = system: SK-MEL-28 melanoma
SK-MEL-5 melanoma = system: SK-MEL-5 melanoma

| SMILES | GI50 (786-0 renal) [µM] | TGI (786-0 renal) [µM] | GI50 (A549 NSCLC) [µM] | TGI (A549 NSCLC) [µM] | GI50 (CCRF-CEM leukemia) [µM] | TGI (CCRF-CEM leukemia) [µM] | GI50 (HCT-15 colon) [µM] | TGI (HCT-15 colon) [µM] | GI50 (HOP-62 NSCLC) [µM] | TGI (HOP-62 NSCLC) [µM] | GI50 (M14 melanoma) [µM] | TGI (M14 melanoma) [µM] | GI50 (MCF7 breast) [µM] | TGI (MCF7 breast) [µM] | GI50 (NCI-H460 lung) [µM] | TGI (NCI-H460 lung) [µM] | GI50 (SK-MEL-28 melanoma) [µM] | TGI (SK-MEL-28 melanoma) [µM] | GI50 (SK-MEL-5 melanoma) [µM] | TGI (SK-MEL-5 melanoma) [µM] |
| --- | --- | --- | --- | --- | --- | --- | --- | --- | --- | --- | --- | --- | --- | --- | --- | --- | --- | --- | --- | --- |
| N#CC(C#N)=C/C=C(\Sc1nc2ccccc2s1)c1ccc(Cl)cc1 | 3.43 | 12 | 9.32 | 30.5 | 0.577 | > 100 | 6.72 | > 44.2 | 14 | 30.5 | 3.19 | 10.5 | 7.65 | > 100 | 18 | > 64.9 | 5.34 | 21.7 | 10.4 | 24.6 |
| CCC(=C/[C@H](C)C/C=C/C(C)=C/[C@@H](C)C(=O)[C@@H](C)[C@H](O)[C@@H](C)CC)/C=C/[C@H]1OC(=O)C=C[C@@H]1C | < 0.01 | < 0.0219 | < 0.01 | – | < 0.01 | 2.66 | < 0.01 | 1.28 | < 0.01 | 1.01 | < 0.01 | 0.193 | < 0.01 | 1.26 | < 0.01 | 1.88 | < 0.01 | 1.26 | < 0.01 | 0.0342 |
| C/C(=C\CBr)CCC(Br)C(C)(C)Br (stereo not drawn) | – | > 100 | – | > 100 | – | > 100 | – | > 100 | – | > 100 | – | > 100 | – | > 100 | – | > 100 | – | > 100 | – | > 100 |
| O=C(Nc1ccc(Oc2ccc(Nc3nc4ccccc4s3)cc2)cc1)Nc1ccc(Cl)c(C(F)(F)F)c1 | 1.79 | 4.63 | 1.97 | 6.26 | 1.76 | > 100 | 1.54 | 3.44 | 1.82 | 4.03 | 1.46 | 3.13 | 1.35 | 3.7 | 1.74 | 4.34 | 1.57 | 3.2 | 1.45 | 2.79 |
| CCN1C(=O)N(c2ccccc2)C2NC(=S)N(/N=C/C=C/c3ccccc3OC)C21 (stereo not drawn) | 0.182 | > 68.8 | 0.121 | > 100 | 0.111 | > 38.5 | 0.102 | > 100 | 0.127 | > 58.5 | 0.0946 | – | 0.0942 | > 64.3 | 0.111 | > 36.2 | 4.73 | > 100 | 0.099 | 0.607 |
| COCCOc1ccc(-c2nc3ccc(-c4nc5ccc(N6CCN(C)CC6)cc5[nH]4)cc3[nH]2)cc1 | 1.64 | 3.81 | 8.05 | 35.2 | 1.02 | > 100 | 38.7 | > 100 | 1.56 | 14.5 | 0.449 | 2.5 | 0.316 | 11.8 | 3.63 | 14.7 | 0.478 | 2.21 | 0.351 | 1.88 |
| O=[N+]([O-])c1ccc(Cl)cc1N/N=C/c1ccnc2ccccc12 | – | > 100 | – | > 100 | – | > 100 | – | > 100 | – | > 100 | – | > 100 | – | > 100 | – | > 100 | – | > 100 | – | > 100 |
| CCCCCCCCCCn1cc[n+](C)c1 | 2.39 | 18.1 | 3.79 | 22.5 | 0.43 | 4.51 | 17.9 | > 100 | 3.16 | 17.5 | 1.9 | 13.5 | 1.69 | 13.6 | 3.52 | 19.2 | 3.33 | 15.1 | 1.17 | 2.79 |
| CN1CC[C@@H](NC(=O)Nc2ccc(C#N)cc2)C[C@@H]1c1nc2ccccc2[nH]1 | > 100 | > 100 | > 100 | > 100 | 97.4 | > 100 | > 100 | > 100 | > 100 | > 100 | > 100 | > 100 | 98.8 | > 100 | > 100 | > 100 | > 100 | > 100 | > 57.7 | > 100 |
| COc1cccc(C(=O)NC(c2ccc(C)cc2)c2cc(Cl)c3cccnc3c2O)c1 (stereo not drawn) | 0.725 | 5.5 | 0.473 | 11.2 | 0.366 | 11.7 | 0.309 | 28.2 | 0.496 | 9.58 | 0.677 | 10.8 | 0.371 | > 30.4 | 0.359 | 4.66 | 0.743 | 17.1 | 0.318 | 1.32 |
| c1ccc(Sc2ncnc3ccccc23)cc1 | 14.9 | 34.5 | 18.1 | 68.3 | 2.9 | 61.4 | 8.03 | 37.2 | 16.3 | 40.5 | 12.3 | 27.6 | 17.8 | 67.9 | 24.2 | > 100 | 23.7 | 89.2 | 11.4 | 24 |
| O=S(=O)(c1ccccc1)c1cccc2c1NCCC2 | – | > 100 | – | > 100 | – | > 100 | – | > 100 | – | > 100 | – | > 100 | – | > 100 | – | > 100 | – | > 100 | – | 52 |
| Nc1n[nH]c2cc(F)c([C@@H]3Nc4ccc5[nH]ncc5c4[C@H]4C5CCC(C5)[C@@H]34)cc12 (stereo partly drawn) | 0.25 | 12 | 0.201 | > 50 | 0.176 | > 50 | 0.159 | 9.04 | 0.222 | 9.12 | 0.147 | 12.3 | 0.115 | 9.18 | 0.177 | 5.86 | 1.37 | 21.9 | 0.128 | 0.355 |
| CN(C)CC1CC/C(=C\c2ccc(O)cc2)C1=O (stereo not drawn) | – | 4.91 | – | 40.9 | – | 3.53 | – | 5.48 | – | 33.6 | – | 4.95 | – | 4.56 | – | 37.2 | – | 6.08 | – | 20.4 |
| COc1ccc2nc3cc(Cl)ccc3c(NCCNCC(C)O)c2c1 (stereo not drawn) | 1.68 | 5.83 | 1.52 | 3.16 | 2.46 | 8.66 | 1.21 | 4.36 | 1.31 | 4.09 | 1.68 | 3.6 | 1.28 | 5.51 | 0.668 | 2.99 | 2.06 | 4.02 | 1.68 | 3.06 |
| COc1ccc2nc(NC(=O)CSc3nnc4n3S(=O)(=O)c3ccccc3N4c3ccccc3)sc2c1 | 12.4 | 93.1 | > 100 | > 100 | > 100 | > 100 | > 100 | > 100 | 2.14 | > 100 | > 100 | > 100 | > 100 | > 100 | > 100 | > 100 | > 100 | > 100 | > 100 | > 100 |
| O=C(O)c1ccc2c(c1C(=O)O)C(=O)OC2(c1ccc(O)cc1)c1ccc(O)cc1 | – | > 100 | – | > 100 | – | > 100 | – | > 100 | – | > 100 | – | > 100 | – | > 100 | – | > 100 | – | > 100 | – | > 100 |
| O=C(CCCSc1nc(-c2ccccc2)cc(-c2ccccc2)n1)NO | 0.585 | 4.34 | 2.63 | 10.1 | 0.368 | 10.6 | 0.408 | 11.8 | 0.671 | 4.4 | 0.927 | 5.29 | 2.1 | 14.3 | 0.488 | 11.2 | 1.95 | 7.2 | 1.41 | 3.17 |
| Nc1n[nH]c2cccc(C#Cc3cccc(C(=O)Nc4ccc(CN5CCOCC5)c(C(F)(F)F)c4)c3)c12 | 2.79 | 7.74 | 3.13 | 11.3 | 2.26 | 11.5 | 2.56 | 9.32 | 2.88 | 10.1 | 1.17 | 3.59 | 2.41 | 10.3 | 3.2 | 10.3 | 1.88 | 7.08 | 1.4 | 3.26 |
